This note sets out measurements from EPA's ToxRefDB 2.

Series [1] has as its system mouse. The following applies: Subchronic oral toxicity in rodents, b6c3f1, Feed, dose end: 13 week, group: systemic.
In series [2] the test system is mouse. The following applies: Carcinogenicity, b6c3f1, Oral, Feed, dose end: 103 week, group: systemic.
The subject of series [3] is rat. Conditions: Carcinogenicity, fischer, Oral, Feed, dose end: 103 week, group: systemic.
The subject of series [4] is rat. The following applies: Subchronic oral toxicity in rodents, fischer, Feed, dose end: 13 week, group: systemic.
Series [5] relates to mouse. The following applies: Carcinogenicity, b6c3f1, Oral, Gavage/Intubation, dose end: 91 week, group: systemic.
The test system of series [6] is rat. The following applies: Carcinogenicity; other; Oral; Feed; dose end: 78 week; group: systemic; systemic / in life observation / clinical signs / abdominogenital staining + systemic / in life observation / clinical signs / fur (altered ….
The subject of series [7] is rat. Conditions: Multigenerational reproductive toxicity study; sprague dawley; Oral; Water; dose end: 1 generation; group: reproductive; reproductive / offspring survival early / litter size / litter size + reproductive / offspring survival early / live fetuses / live fetuses.
Series [8] relates to rat. The following applies: Subchronic oral toxicity in rodents, fischer, Gavage/Intubation, dose end: 16 week.
The subject of series [9] is mouse. Conditions: Subchronic oral toxicity in rodents, b6c3f1, Gavage/Intubation, dose end: 16 week, group: systemic.
Series [10] has as its system mouse. Conditions: Carcinogenicity, b6c3f1, Oral, Gavage/Intubation, dose end: 2 year, group: systemic.
Series [11] has as its system rat. Conditions: Carcinogenicity, fischer, Oral, Gavage/Intubation, dose end: 2 year, group: systemic.
A further series has as its system dog. Conditions: Chronic toxicity; beagle; Oral; Capsule; dose end: 104 PND; group: systemic; systemic / in life observation / clinical signs / [other].
Series [12] concerns mouse. The following applies: Carcinogenicity; b6c3f1; Oral; Feed; dose end: 104 week; group: systemic; systemic / pathology microscopic / spleen / hematopoietic cell proliferation + systemic / pathology microscopic / stomach / hyperkeratosis.
The test system of series [13] is rat. The following applies: Combined chronic toxicity/carcinogenicity; wistar; Oral; Feed; dose end: 2 year; group: systemic; systemic / in life observation / clinical signs / aggressive behavior + systemic / in life observation / clinical signs / excitation + ….
[14] abbreviates: systemic / in life observation / clinical signs / ocular discharge + systemic / in life observation / clinical signs / aggressive behavior….
The mark [15] stands for this setting: systemic / pathology microscopic / kidney / karyomegaly.
Where [16] appears, read: systemic / in life observation / body weight / body weight.
Setting [17] is: systemic / in life observation / body weight / body weight + systemic / in life observation / clinical signs / [other] + systemic / in life ….
The mark [18] stands for this setting: systemic / in life observation / body weight / body weight + systemic / in life observation / clinical signs / aggressive behavior + ….
Where [19] appears, read: systemic / in life observation / food consumption / food consumption + systemic / organ weight / liver / absolute.
Where [20] appears, read: systemic / pathology microscopic / adrenal gland / pheochromocytoma nos + systemic / pathology microscopic / liver / carcinoma + systemic / ….
Where [21] appears, read: systemic / pathology microscopic / liver / carcinoma + systemic / in life observation / mortality / mortality + systemic / in life ….
Where [22] appears, read: group: cholinesterase, cholinesterase / cholinesterase / cholinesterase / cholinesterase (che).
The mark [23] stands for this setting: group: systemic, systemic / organ weight / kidney / absolute + systemic / organ weight / kidney / relative to body weight + systemic / organ weight / liver….
The mark [24] stands for this setting: systemic / pathology microscopic / kidney / cytomegaly + systemic / pathology microscopic / kidney / karyomegaly + systemic / organ weight….
The mark [25] stands for this setting: systemic / pathology microscopic / kidney / karyomegaly + systemic / pathology microscopic / harderian gland / adenoma.
[26] abbreviates: systemic / pathology microscopic / brain / degeneration + systemic / clinical chemistry / alanine aminotransferase (alt/sgpt) / alanine ….
The mark [27] stands for this setting: systemic / pathology microscopic / brain / degeneration + systemic / pathology microscopic / brain / necrosis + systemic / pathology ….

On to `C[C@](N)(Cc1ccc(O)c(O)c1)C(=O)O.C[C@](N)(Cc1ccc(O)c(O)c1)C(=O)O.O.O.O` [Methyldopa sesquihydrate], for which the LEL with mouse [1] (setting [14]) is 465 mg/kg/day; in the series with mouse [2] (setting [17]) it was 830 mg/kg/day; in the series with rat [3] (setting [18]), 110 mg/kg/day; in the series with rat [4] (setting [19]), 155 mg/kg/day. For the same compound, the NEL in the series on mouse [1] (setting [14]) is < 465 mg/kg/day; in the series on mouse [2] (setting [17]) it was < 830 mg/kg/day; with rat [3] (setting [18]), < 110 mg/kg/day; in the series with rat [4] (setting [19]), < 155 mg/kg/day. Further, the LOAEL in the series on mouse [1] (setting [15]) stood at 1880 mg/kg/day; with mouse [2] (setting [16]), 830 mg/kg/day; with rat [3] (setting [16]), 110 mg/kg/day; with rat [4] (systemic / pathology microscopic / kidney / regeneration + systemic / in life observation / body weight / body weight) it was 625 mg/kg/day. Also, the NOAEL in the series on mouse [1] (systemic / pathology microscopic / kidney / karyomegaly + systemic / in life observation / body weight / body weight + systemic / in life …) was 945 mg/kg/day; in the series with mouse [2] (setting [16]) it was < 830 mg/kg/day; in the series with rat [3] (setting [16]), < 110 mg/kg/day; in the series with rat [4] (systemic / pathology microscopic / kidney / regeneration + systemic / in life observation / body weight / body weight + systemic / in life …) it was 315 mg/kg/day.
On to `ClCC(Cl)Cl` [1,1,2-Trichloroethane], for which, in the series on mouse [5] (setting [20]), the LOAEL is > 390 mg/kg/day and the NOAEL was ≥ 390 mg/kg/day. In the series with mouse [5] (setting [21]), the LEL came out at 195 mg/kg/day and the NEL was < 195 mg/kg/day. In the series on rat [6], the LEL worked out at 46 mg/kg/day, the LOAEL was > 92 mg/kg/day, the NEL was < 46 mg/kg/day and the NOAEL is ≥ 92 mg/kg/day.
Consider `Oc1ccccc1Cl` [2-Chlorophenol], for which, in the series on rat [7], the LEL is 25 mg/kg/day, the LOAEL was > 25 mg/kg/day, the NEL was 2.5 mg/kg/day and the NOAEL is ≥ 25 mg/kg/day.
Regarding `O=P(OCCCl)(OCCCl)OCCCl` [Tris(2-chloroethyl) phosphate], the LEL in the series on rat [8] (setting [22]) stood at 175 mg/kg/day; in the series with rat [8] (setting [23]), 44 mg/kg/day; in the series with mouse [9] (systemic / organ weight / liver / absolute + systemic / organ weight / liver / relative to body weight + systemic / organ weight / kidney / …), 175 mg/kg/day; in the series on mouse [10] (setting [25]), 175 mg/kg/day; in the series with rat [11] (setting [27]), 88 mg/kg/day. The LOAEL amounted to 175 mg/kg/day with rat [8] (setting [22]); 175 mg/kg/day with rat [8] (group: systemic, systemic / in life observation / clinical signs / hyperactivity + systemic / pathology microscopic / brain / necrosis); 700 mg/kg/day in the series on mouse [9] (systemic / pathology microscopic / kidney / cytomegaly + systemic / pathology microscopic / kidney / karyomegaly); 175 mg/kg/day with mouse [10] (setting [15]); 88 mg/kg/day in the series on rat [11] (setting [27]). In addition, the NEL is 88 mg/kg/day in the series with rat [8] (setting [22]); 22 mg/kg/day in the series on rat [8] (setting [23]); 88 mg/kg/day in the series with mouse [9] (setting [24]); < 175 mg/kg/day in the series with mouse [10] (setting [25]); 44 mg/kg/day with rat [11] (setting [26]). The NOAEL in the series on rat [8] (setting [22]) is 88 mg/kg/day; in the series with rat [8] (setting [23]), 88 mg/kg/day; with mouse [9] (setting [24]), 350 mg/kg/day; with mouse [10] (setting [15]) it was < 175 mg/kg/day; in the series with rat [11] (setting [26]), 44 mg/kg/day.
In the series on dog, `Cc1ccc(N=CN(C)C=Nc2ccc(C)cc2C)c(C)c1` [Amitraz] gave an LEL of 1 mg/kg/day, an LOAEL of 1 mg/kg/day, an NEL of 0.25 mg/kg/day and an NOAEL of 0.25 mg/kg/day. Moreover, in the series with mouse [12], the LEL was 2.31 mg/kg/day, the lowest-observed-adverse-effect level (LOAEL) is 2.31 mg/kg/day, the NEL is < 2.31 mg/kg/day and the no-observed-adverse-effect level (NOAEL) is < 2.31 mg/kg/day. In the series with rat [13], the LEL turned out to be 3.13 mg/kg/day, the LOAEL worked out at 3.13 mg/kg/day, the NEL was found to be 0.97 mg/kg/day and the no-observed-adverse-effect level (NOAEL) is 0.97 mg/kg/day.

The term LOAEL denotes the lowest dose or exposure tested at which an adverse effect was seen. The NOAEL is the highest tested level that showed no adverse finding.
